conditions: human gut metagenome, 24 h, 2 µM
Note: call rule not given here.

Row | Bacterial Biotransformation | Structure (SMILES)
1 | Compound NOT metabolized | CC(C)NCC(O)c1ccc(NS(C)(=O)=O)cc1 (stereo not given) [SOTALOL]
2 | Compound metabolized | CCN1CCCC1CNC(=O)c1cc(S(N)(=O)=O)ccc1OC (stereo not given) [SULPIRIDE]

conditions: human gut metagenome, 24 h, 2 µM; remark: another data set of the same source

Row | Bacterial Biotransformation | Structure (SMILES)
3 | Compound NOT metabolized | CC(C)NCC(O)c1ccc(NS(C)(=O)=O)cc1 (stereo not given) [SOTALOL]
4 | Compound metabolized | CCN1CCCC1CNC(=O)c1cc(S(N)(=O)=O)ccc1OC (stereo not given) [SULPIRIDE]

test: (§1) The drug is tested on Z-029 corresponding to rat gut metagenome with ENA study accession number: PRJEB37062 and ENA sample accession number: ERS12561828 for biotransformation under anaerobic condition. The drug concentrations were measured over 9 timepoints collected between 0 and 24 hours of incubation by liquid-chromatography-coupled mass spectrometry (LC–MS); conditions: 2 µM

Row | Bacterial Biotransformation | Structure (SMILES)
5 | Compound NOT metabolized | CC(C)NCC(O)c1ccc(NS(C)(=O)=O)cc1 (stereo not given) [SOTALOL]
6 | Compound NOT metabolized | CCN1CCCC1CNC(=O)c1cc(S(N)(=O)=O)ccc1OC (stereo not given) [SULPIRIDE]

conditions: human gut metagenome, 24 h, 2 µM; remark: another data set of the same source

Row | Bacterial Biotransformation | Structure (SMILES)
7 | Compound NOT metabolized | CC(C)NCC(O)c1ccc(NS(C)(=O)=O)cc1 (stereo not given) [SOTALOL]
8 | Compound NOT metabolized | CCN1CCCC1CNC(=O)c1cc(S(N)(=O)=O)ccc1OC (stereo not given) [SULPIRIDE]

conditions: human gut metagenome, 24 h, 2 µM; remark: another data set of the same source

Row | Bacterial Biotransformation | Structure (SMILES)
9 | Compound NOT metabolized | CC(C)NCC(O)c1ccc(NS(C)(=O)=O)cc1 (stereo not given) [SOTALOL]
10 | Compound NOT metabolized | CCN1CCCC1CNC(=O)c1cc(S(N)(=O)=O)ccc1OC (stereo not given) [SULPIRIDE]

test: as §1, with “on WLS-082” for “on Z-029”, “to human” for “to rat”, “number: ERS12561751” for “number: ERS12561828”; conditions: 2 µM

Row | Bacterial Biotransformation | Structure (SMILES)
11 | Compound NOT metabolized | CC(C)NCC(O)c1ccc(NS(C)(=O)=O)cc1 (stereo not given) [SOTALOL]
12 | Compound NOT metabolized | CCN1CCCC1CNC(=O)c1cc(S(N)(=O)=O)ccc1OC (stereo not given) [SULPIRIDE]

test: as §1, with “Z-012” for “Z-029”, “to” for “to rat gut”, “ERS12561812” for “ERS12561828”; conditions: 2 µM

Row | Bacterial Biotransformation | Structure (SMILES)
13 | Compound NOT metabolized | CC(C)NCC(O)c1ccc(NS(C)(=O)=O)cc1 (stereo not given) [SOTALOL]
14 | Compound NOT metabolized | CCN1CCCC1CNC(=O)c1cc(S(N)(=O)=O)ccc1OC (stereo not given) [SULPIRIDE]

test: as §1, with “on WLS-240” for “on Z-029”, “to human” for “to rat”, “number: ERS12561773” for “number: ERS12561828”; conditions: 2 µM

Row | Bacterial Biotransformation | Structure (SMILES)
15 | Compound NOT metabolized | CC(C)NCC(O)c1ccc(NS(C)(=O)=O)cc1 (stereo not given) [SOTALOL]
16 | Compound metabolized | CCN1CCCC1CNC(=O)c1cc(S(N)(=O)=O)ccc1OC (stereo not given) [SULPIRIDE]

test: as §1, with “on Z-003” for “on Z-029”, “to pig” for “to rat”, “number: ERS12561803” for “number: ERS12561828”; conditions: 2 µM

Row | Bacterial Biotransformation | Structure (SMILES)
17 | Compound NOT metabolized | CC(C)NCC(O)c1ccc(NS(C)(=O)=O)cc1 (stereo not given) [SOTALOL]
18 | Compound metabolized | CCN1CCCC1CNC(=O)c1cc(S(N)(=O)=O)ccc1OC (stereo not given) [SULPIRIDE]

conditions: human gut metagenome, 24 h, 2 µM; remark: another data set of the same source

Row | Bacterial Biotransformation | Structure (SMILES)
19 | Compound NOT metabolized | CC(C)NCC(O)c1ccc(NS(C)(=O)=O)cc1 (stereo not given) [SOTALOL]
20 | Compound NOT metabolized | CCN1CCCC1CNC(=O)c1cc(S(N)(=O)=O)ccc1OC (stereo not given) [SULPIRIDE]

conditions: human gut metagenome, 24 h, 2 µM; remark: another data set of the same source

Row | Bacterial Biotransformation | Structure (SMILES)
21 | Compound NOT metabolized | CC(C)NCC(O)c1ccc(NS(C)(=O)=O)cc1 (stereo not given) [SOTALOL]
22 | Compound NOT metabolized | CCN1CCCC1CNC(=O)c1cc(S(N)(=O)=O)ccc1OC (stereo not given) [SULPIRIDE]

test: as §1, with “on WLS-350” for “on Z-029”, “to human” for “to rat”, “number: ERS12561789” for “number: ERS12561828”; conditions: 2 µM

Row | Bacterial Biotransformation | Structure (SMILES)
23 | Compound NOT metabolized | CC(C)NCC(O)c1ccc(NS(C)(=O)=O)cc1 (stereo not given) [SOTALOL]
24 | Compound NOT metabolized | CCN1CCCC1CNC(=O)c1cc(S(N)(=O)=O)ccc1OC (stereo not given) [SULPIRIDE]

conditions: human gut metagenome, 24 h, 2 µM; remark: another data set of the same source

Row | Bacterial Biotransformation | Structure (SMILES)
25 | Compound NOT metabolized | CC(C)NCC(O)c1ccc(NS(C)(=O)=O)cc1 (stereo not given) [SOTALOL]
26 | Compound metabolized | CCN1CCCC1CNC(=O)c1cc(S(N)(=O)=O)ccc1OC (stereo not given) [SULPIRIDE]

test: as §1, with “on Z-018” for “on Z-029”, “to pig” for “to rat”, “number: ERS12561817” for “number: ERS12561828”; conditions: 2 µM

Row | Bacterial Biotransformation | Structure (SMILES)
27 | Compound NOT metabolized | CC(C)NCC(O)c1ccc(NS(C)(=O)=O)cc1 (stereo not given) [SOTALOL]
28 | Compound metabolized | CCN1CCCC1CNC(=O)c1cc(S(N)(=O)=O)ccc1OC (stereo not given) [SULPIRIDE]

conditions: human gut metagenome, 24 h, 2 µM; remark: another data set of the same source

Row | Bacterial Biotransformation | Structure (SMILES)
29 | Compound NOT metabolized | CC(C)NCC(O)c1ccc(NS(C)(=O)=O)cc1 (stereo not given) [SOTALOL]
30 | Compound NOT metabolized | CCN1CCCC1CNC(=O)c1cc(S(N)(=O)=O)ccc1OC (stereo not given) [SULPIRIDE]

test: as §1, with “Z-005” for “Z-029”, “to” for “to rat gut”, “ERS12561805” for “ERS12561828”; conditions: 2 µM

Row | Bacterial Biotransformation | Structure (SMILES)
31 | Compound NOT metabolized | CC(C)NCC(O)c1ccc(NS(C)(=O)=O)cc1 (stereo not given) [SOTALOL]
32 | Compound NOT metabolized | CCN1CCCC1CNC(=O)c1cc(S(N)(=O)=O)ccc1OC (stereo not given) [SULPIRIDE]

conditions: human gut metagenome, 24 h, 2 µM; remark: another data set of the same source

Row | Bacterial Biotransformation | Structure (SMILES)
33 | Compound NOT metabolized | CC(C)NCC(O)c1ccc(NS(C)(=O)=O)cc1 (stereo not given) [SOTALOL]
34 | Compound NOT metabolized | CCN1CCCC1CNC(=O)c1cc(S(N)(=O)=O)ccc1OC (stereo not given) [SULPIRIDE]

conditions: human gut metagenome, 24 h, 2 µM; remark: another data set of the same source

Row | Bacterial Biotransformation | Structure (SMILES)
35 | Compound NOT metabolized | CC(C)NCC(O)c1ccc(NS(C)(=O)=O)cc1 (stereo not given) [SOTALOL]
36 | Compound NOT metabolized | CCN1CCCC1CNC(=O)c1cc(S(N)(=O)=O)ccc1OC (stereo not given) [SULPIRIDE]

test: as §1, with “Z-007” for “Z-029”, “ERS12561807” for “ERS12561828”; conditions: 2 µM

Row | Bacterial Biotransformation | Structure (SMILES)
37 | Compound NOT metabolized | CC(C)NCC(O)c1ccc(NS(C)(=O)=O)cc1 (stereo not given) [SOTALOL]
38 | Compound NOT metabolized | CCN1CCCC1CNC(=O)c1cc(S(N)(=O)=O)ccc1OC (stereo not given) [SULPIRIDE]

conditions: human gut metagenome, 24 h, 2 µM; remark: another data set of the same source

Row | Bacterial Biotransformation | Structure (SMILES)
39 | Compound NOT metabolized | CC(C)NCC(O)c1ccc(NS(C)(=O)=O)cc1 (stereo not given) [SOTALOL]
40 | Compound NOT metabolized | CCN1CCCC1CNC(=O)c1cc(S(N)(=O)=O)ccc1OC (stereo not given) [SULPIRIDE]
